The record followed here is ChEMBL document CHEMBL4052765, “Synthesis and antibacterial evaluation of novel 11-O-carbamoyl clarithromycin ketolides” (2017).

Format in all cases: functional
For assay [1], the system named is Escherichia coli. The assay can be described thus: Antibacterial activity against penicillin-susceptible Escherichia coli ATCC 25922 after 24 h by NCCLS broth microdilution method. The note with it: ATCC 25922, 24 h. A general note: Broth dilution looks for growth in wells or tubes with falling amounts of substance.
In assay [2] the test system is Streptococcus pneumoniae. The assay can be described thus: Antibacterial activity against erythromycin-resistant Streptococcus pneumoniae B1 harboring erm gene after 24 h by NCCLS broth microdilution method. The note with it: B1, 24 h.
For assay [3], the system named is Bacillus subtilis. As to the kind of experiment: Antibacterial activity against penicillin-susceptible Bacillus subtilis ATCC 9372 after 24 h by NCCLS broth microdilution method. The note with it: ATCC 9372, 24 h.
The subject of assay [4] is Staphylococcus aureus. As to the kind of experiment: Antibacterial activity against erythromycin-susceptible Staphylococcus aureus ATCC 25923 after 24 h by NCCLS broth microdilution method. The conditions noted are these: ATCC 25923, 24 h.
Assay [5] concerns Streptococcus pneumoniae. The assay can be described thus: Antibacterial activity against erythromycin-resistant Streptococcus pneumoniae A22072 harboring mef gene after 24 h by NCCLS broth microdilution method. The conditions noted are these: A22072, 24 h.
Assay [6] relates to Streptococcus pyogenes. As to the kind of experiment: Antibacterial activity against erythromycin-resistant Streptococcus pyogenes R1 after 24 h by NCCLS broth microdilution method. The note with it: R1, 24 h.
For assay [7], the system named is Staphylococcus aureus. The assay can be described thus: Antibacterial activity against […] Staphylococcus aureus ATCC 29213 after 24 h by NCCLS broth microdilution method. The note with it: ATCC 29213, 24 h.
Assay [8] relates to Pseudomonas aeruginosa. As to the kind of experiment: Antibacterial activity against penicillin-susceptible Pseudomonas aeruginosa ATCC 27853 after 24 h by NCCLS broth microdilution method. The conditions noted are these: ATCC 27853, 24 h.
The subject of assay [9] is Streptococcus pneumoniae. As to the kind of experiment: Antibacterial activity against erythromycin-resistant Streptococcus pneumoniae AB11 harboring harboring mef and erm gene after 24 h by NCCLS broth microdilution method. The conditions noted are these: AB11, 24 h.
Assay [10] deals with Streptococcus pyogenes. As to the kind of experiment: Antibacterial activity against erythromycin-susceptible Streptococcus pyogenes after 24 h by NCCLS broth microdilution method.

Converted amounts (≈) assume the structure as drawn.

In general, MIC refers to the lowest concentration that inhibits growth of the organism. For `CC[C@H]1OC(=O)[C@H](C)C(=O)[C@H](C)[C@@H](O[C@@H]2O[C@H](C)C[C@H](N(C)C)[C@H]2O)[C@](C)(OC)C[C@@H](C)C(=O)[C@H](C)[C@@H](OC(=O)NCCNC(=O)c2ccc(OC)cc2)[C@]1(C)O`, the MIC in assay [1] was more than 128 µg/mL; in [2], 128 µg/mL (≈ 158 µM); in assay [3], 4 µg/mL (≈ 4.95 µM); in assay [4], 32 µg/mL (≈ 39.6 µM); in assay [5], 1 µg/mL (≈ 1.24 µM); in assay [6], more than 128 µg/mL. Further, the minimum inhibitory concentration (MIC) is 128 µg/mL (≈ 158 µM) in assay [7], more than 128 µg/mL in assay [8], 64 µg/mL (≈ 79.2 µM) in assay [9] and 2 µg/mL (≈ 2.48 µM) in [10].

On to `CC[C@H]1OC(=O)[C@H](C)C(=O)[C@H](C)[C@@H](O[C@@H]2O[C@H](C)C[C@H](N(C)C)[C@H]2O)[C@](C)(OC)C[C@@H](C)C(=O)[C@H](C)[C@@H](OC(=O)NCCNC(=O)c2ccc(Br)cc2)[C@]1(C)O`, for which the MIC in [1] is more than 128 µg/mL; in assay [2], 128 µg/mL (≈ 149 µM); in assay [3], 1 µg/mL (≈ 1.17 µM); in [4], 8 µg/mL (≈ 9.34 µM); in assay [5], 1 µg/mL (≈ 1.17 µM); in assay [6] it was more than 128 µg/mL. In addition, the minimal inhibitory concentration (MIC) is 128 µg/mL (≈ 149 µM) in assay [7], 128 µg/mL (≈ 149 µM) in [8], 64 µg/mL (≈ 74.7 µM) in assay [9] and 2 µg/mL (≈ 2.33 µM) in [10].

For `CC[C@H]1OC(=O)[C@H](C)C(=O)[C@H](C)[C@@H](O[C@@H]2O[C@H](C)C[C@H](N(C)C)[C@H]2O)[C@](C)(OC)C[C@@H](C)C(=O)[C@H](C)[C@@H](OC(=O)NCCNC(=O)c2ccc(C)cc2)[C@]1(C)O`, the MIC in assay [1] was more than 128 µg/mL; in [2], 128 µg/mL (≈ 162 µM); in assay [3], 2 µg/mL (≈ 2.53 µM); in assay [4], 32 µg/mL (≈ 40.4 µM); in [5], 2 µg/mL (≈ 2.53 µM); in assay [6] it was more than 128 µg/mL. For the same molecule, the MIC in [7] is 128 µg/mL (≈ 162 µM); in assay [8] it was more than 128 µg/mL; in [9], 64 µg/mL (≈ 80.8 µM); in assay [10], 4 µg/mL (≈ 5.05 µM).

Turning to `CC[C@H]1OC(=O)[C@H](C)C(=O)[C@H](C)[C@@H](O[C@@H]2O[C@H](C)C[C@H](N(C)C)[C@H]2O)[C@](C)(OC)C[C@@H](C)C(=O)[C@H](C)[C@@H](OC(=O)NCCNC(=O)c2ccccc2)[C@]1(C)O`, the MIC in assay [1] is more than 128 µg/mL; in assay [2] it was 128 µg/mL (≈ 165 µM); in assay [3] it was 4 µg/mL (≈ 5.14 µM); in assay [4], 64 µg/mL (≈ 82.3 µM); in assay [5] it was 4 µg/mL (≈ 5.14 µM); in assay [6], more than 128 µg/mL. In addition, the MIC in [7] was 128 µg/mL (≈ 165 µM); in assay [8], more than 128 µg/mL; in [9], 128 µg/mL (≈ 165 µM); in [10], 4 µg/mL (≈ 5.14 µM).

Turning to `CC[C@H]1OC(=O)[C@H](C)C(=O)[C@H](C)[C@@H](O[C@@H]2O[C@H](C)C[C@H](N(C)C)[C@H]2O)[C@](C)(OC)C[C@@H](C)C(=O)[C@H](C)[C@@H](OC(=O)NCCNC(=O)c2ccc(F)cc2)[C@]1(C)O`, the MIC is more than 128 µg/mL in assay [1]; 128 µg/mL (≈ 161 µM) in [2]; 1 µg/mL (≈ 1.26 µM) in assay [3]; 32 µg/mL (≈ 40.2 µM) in [4]; 2 µg/mL (≈ 2.51 µM) in assay [5]; more than 128 µg/mL in assay [6]. Besides, the MIC in assay [7] was found to be 128 µg/mL (≈ 161 µM); in assay [8], 128 µg/mL (≈ 161 µM); in [9], 64 µg/mL (≈ 80.4 µM); in assay [10], 2 µg/mL (≈ 2.51 µM).

As to `CC[C@H]1OC(=O)[C@H](C)C(=O)[C@H](C)[C@@H](O[C@@H]2O[C@H](C)C[C@H](N(C)C)[C@H]2O)[C@](C)(OC)C[C@@H](C)C(=O)[C@H](C)[C@@H](OC(=O)NCCNC(=O)c2ccc([N+](=O)[O-])cc2)[C@]1(C)O`, the minimal inhibitory concentration (MIC) in assay [1] was more than 128 µg/mL; in assay [2] it was 128 µg/mL (≈ 156 µM); in [3], 1 µg/mL (≈ 1.22 µM); in assay [4], 16 µg/mL (≈ 19.4 µM); in [5], 1 µg/mL (≈ 1.22 µM); in assay [6], more than 128 µg/mL. For the same molecule, the MIC stood at 128 µg/mL (≈ 156 µM) in assay [7], 128 µg/mL (≈ 156 µM) in assay [8], 64 µg/mL (≈ 77.8 µM) in assay [9] and 0.25 µg/mL (≈ 0.304 µM) in assay [10].
